Measurements taken from paper PMC8596838, “Xylose‐Configured Cyclophellitols as Selective Inhibitors for Glucocerebrosidase” (Chembiochem, 2021).

Target: T1, GBA3 (Homo sapiens, UniProt Q9H227)
T1 construct: expressed in transfected cells; host or cells: HEK293T (GBA/GBA2 KO background for the fluorogenic assay; endogenous-GBA background with GBA2 and GBA3 overexpressed for ABPP and intact-cell assays)
T1 sequence (Q9H227 1-469): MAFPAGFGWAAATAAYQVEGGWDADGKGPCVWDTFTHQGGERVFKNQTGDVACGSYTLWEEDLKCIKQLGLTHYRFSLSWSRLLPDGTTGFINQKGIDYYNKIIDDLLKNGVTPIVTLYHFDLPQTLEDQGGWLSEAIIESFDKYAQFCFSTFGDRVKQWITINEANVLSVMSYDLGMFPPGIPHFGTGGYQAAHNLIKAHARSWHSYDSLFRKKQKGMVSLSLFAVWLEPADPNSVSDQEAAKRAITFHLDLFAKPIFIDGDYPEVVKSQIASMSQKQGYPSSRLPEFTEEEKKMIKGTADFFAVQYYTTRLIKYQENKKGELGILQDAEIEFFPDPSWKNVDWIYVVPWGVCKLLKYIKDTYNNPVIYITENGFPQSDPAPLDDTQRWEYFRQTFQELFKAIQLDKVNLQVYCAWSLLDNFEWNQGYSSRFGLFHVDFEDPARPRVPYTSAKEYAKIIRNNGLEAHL
Assay: Inhibition in intact HEK293T cells (24 h), read out by cABPP with ABP 10, GBA3
Type: cell-based
Conditions: for IC50: 24 h treatment, cABPP quantification, n=3; for GBA3/GBA ratio, intact cells: IC50 ratio, 24 h
From the text: We next examined the activity of 1 and 2 towards the three human β‐D‐glucosidase in intact HEK293T cells. […] It is noted that the GBA‐selectivity of both compounds is much improved in intact cells than in the in vitro system (Figure 2 and Table 1). This is especially true for compound 1, where an impressive 4‐logs of selectivity window is observed.
Figure 5 Inhibitory effect of β‐D‐xylo‐configured cyclophellitol 1 and cyclophellitol aziridine 2 on β‐glucosidases in intact HEK293T cells expressing GBA, GBA2 and GBA3. (A) Representative gel images of cABPP where cells were treated for 24 h with indicated inhibitor. Lysates were then prepared and labeled with fluorescent ABP 10. Fluorescently labeled proteins were visualized after SDS‐PAGE (1 set from n=3 replicates). (B) IC50 curves determined by cABPP labeling results. (C) Apparent IC50 values towards β‐glucosidases in intact HEK293T cells producing GBA, GBA2 and GBA3 were determined by the fluorescence quantification based on cABPP SDS‐PAGE results.
ABP labeling procedure: Glycosidases were labeled with excess fluorescent ABPs at optimum conditions. ABP labeling was performed at 37 °C for 30 min for all materials (if not otherwise stated), in a total sample volume of 20–40 μL and 0.5–1 % DMSO concentration. GBA was labeled with 200 nM ABP 9 (pH 5.2, 0.1 % (v/v) Triton‐100, 0.2 % (w/v) sodium taurocholate), or labeled together with GBA2 using 200 nM β‐D‐glucose‐configured aziridine ABP 10 at pH 5.8, or labeling together with GBA2 and GBA3 using 200 nM β‐D‐glucose‐configured aziridine ABP 10 at pH 6.0. After ABP incubation, proteins were denatured by boiling the samples with 5× Laemmli buffer (50 % (v/v) 1 M Tris‐HCl, pH 6.8, 50 % (v/v) 100 % glycerol, 10 % (w/v) DTT, 10 % (w/v) SDS, 0.01 % (w/v) bromophenol blue) for 5 min at 98 °C, and separated by electrophoresis on 10 % (w/v) SDS‐PAGE gels running continuously at 90 V. Wet slab‐gels were scanned on fluorescence using the Typhoon FLA 9500 (GE Healthcare) at λEX 473 nm and λEM≥510 nm for green fluorescent ABP 8; and at λEX 635 nm and λEM≥665 nm for ABP 6, 9 and 10. ABP‐emitted fluorescence was quantified using ImageQuant software (GE Healthcare, Chicago, IL, USA) and curve‐fitted using Prism 8.0 (GraphPad Software). After fluorescence scanning, SDS‐PAGE gels were stained for total protein with Coomassie G250 and scanned on a ChemiDoc MP imager (Bio‐Rad, Hercules, CA, USA).[25]
Assessment of inhibitor activity in cultured cells: Confluent HEK293T stably expressing human GBA and GBA2 GBA3 overexpressing were cultured in 24‐well plates in triplicates with(out) inhibitors for 24 h at 37 °C with 7 % CO2. […]

## O[C@@H]1[C@@H](O)[C@H](O)C[C@H]2N[C@@H]12 [compound 2, β‐D‐xylo‐Cyclophellitol aziridine]
  IC50: 48.9 ± 12.7 µM
  GBA3/GBA ratio, intact cells: 1159

## O[C@@H]1[C@@H](O)[C@H](O)C[C@H]2O[C@@H]12 [compound 1, xylo‐cyclophellitol]
  IC50: > 100 µM
  GBA3/GBA ratio, intact cells: > 10000
